Experimental data published in publication PMC12722308, “A phase 1 study of orally administered 5-fluoro-2’-deoxycytidine with tetrahydrouridine in patients with refractory solid tumors” (Cancer Chemotherapy and Pharmacology, 2025).
Marks after values point to notes of the source that are not given here. Values belong to the compound of their own block, whether it stands above or below them.

What was measured:
[1] = Plasma pharmacokinetics by LC-MS/MS; format: in vivo, human
Description: (§1) Blood specimens for PK analysis were collected on Cycle 1 Day 1 (C1D1) prior to THU administration and then at 15, 30, and 45 min and 1, 2, 3, 4, 5, and 6 h after THU administration, as well as on C1D2 and C1D3 prior to and 2 h after THU administration. Urine specimens for PK analysis were collected on C1D1 prior to treatment and then at every void from 0 to 24 h after THU administration. All specimens for PK analysis were processed and analyzed by LC-MS/MS as described previously, and Phoenix WinNonlin software was used for data analysis.

[2] = Urinary excretion by LC-MS/MS; format: in vivo, human
Description: as §1

[3] = All FdCyd doses + THU 3000 mg oral (n=44), geom. mean (geom. SD)
[4] = All FdCyd doses + THU 6000 mg oral (n=11), geom. mean (geom. SD)
[5] = DL1: FdCyd 30 mg + THU 3000 mg oral (n=3), geom. mean (geom. SD)
[6] = DL1: FdCyd 30 mg + THU 3000 mg oral (n=3), no SD given
[7] = DL2: FdCyd 60 mg + THU 3000 mg oral (n=4), geom. mean (geom. SD)
[8] = DL3: FdCyd 90 mg + THU 3000 mg oral (n=3), geom. mean (geom. SD)
[9] = DL4: FdCyd 120 mg + THU 3000 mg oral (n=3), geom. mean (geom. SD)
[10] = DL5-9: FdCyd 160 mg + THU 3000 mg oral (n=31), geom. mean (geom. SD)
[11] = DL10: FdCyd 60 mg + THU 6000 mg oral (n=8), geom. mean (geom. SD)
[12] = DL11: FdCyd 80 mg + THU 6000 mg oral (n=3), geom. mean (geom. SD)
[13] = Total, all dose levels (n=55), geom. mean (geom. SD)
[14] = DL2: FdCyd 60 mg + THU 3000 mg oral, FU n=3, geom. mean (geom. SD)
[15] = DL3: FdCyd 90 mg + THU 3000 mg oral, FU n=3, geom. mean (geom. SD)
[16] = DL4: FdCyd 120 mg + THU 3000 mg oral, FU n=2, geom. mean (geom. SD)
[17] = DL5-9: FdCyd 160 mg + THU 3000 mg oral, FU n=29, geom. mean (geom. SD)
[18] = DL10: FdCyd 60 mg + THU 6000 mg oral, FU n=8, geom. mean (geom. SD)
[19] = DL11: FdCyd 80 mg + THU 6000 mg oral, FU n=3, geom. mean (geom. SD)

FdUrd AUC/Dose [1, 3]: 0.55 (1.6)^d µg/L•h/mg
FdUrd Cmax/Dose [1, 3]: 0.19 (1.6)^c µg/L / mg
FdUrd t½ [1, 3]: 1.3 (1.9) h
FdUrd/FdCyd metabolic ratio, AUC0-inf [1, 3]: 0.068 (2.1)^f
FdUrd/FdCyd metabolic ratio, Cmax [1, 3]: 0.048 (2.0)^e
FdUrd AUC/Dose [1, 4]: 0.80 (1.6)^d µg/L•h/mg
FdUrd Cmax/Dose [1, 4]: 0.34 (1.5)^c µg/L / mg
FdUrd t½ [1, 4]: 1.2 (1.6) h
FdUrd/FdCyd metabolic ratio, AUC0-inf [1, 4]: 0.067 (1.4)^f
FdUrd/FdCyd metabolic ratio, Cmax [1, 4]: 0.051 (1.9)^e
FdUrd Cmax [1, 5]: 0.012 (1.4) mg/L
FdUrd Cmax/Dose [1, 5]: 0.41 (1.4) µg/L / mg
FdUrd/FdCyd metabolic ratio, Cmax [1, 5]: 0.099 (1.6)
FdUrd AUC0-inf [1, 6]: 0.047 (-) mg/L•h
FdUrd AUC/Dose [1, 6]: 1.58 (-) µg/L•h/mg
FdUrd t½ [1, 6]: 3.3 (-) h
FdUrd/FdCyd metabolic ratio, AUC0-inf [1, 6]: 0.069 (-)
FdUrd AUC0-inf [1, 7]: 0.044 (1.72) mg/L•h
FdUrd AUC/Dose [1, 7]: 0.73 (1.7) µg/L•h/mg
FdUrd Cmax [1, 7]: 0.011 (1.7) mg/L
FdUrd Cmax/Dose [1, 7]: 0.19 (1.7) µg/L / mg
FdUrd t½ [1, 7]: 1.8 (3.4) h
FdUrd/FdCyd metabolic ratio, AUC0-inf [1, 7]: 0.070 (3.5)
FdUrd/FdCyd metabolic ratio, Cmax [1, 7]: 0.039 (2.3)
FdUrd AUC0-inf [1, 8]: 0.043 (1.20) mg/L•h
FdUrd AUC/Dose [1, 8]: 0.48 (1.2) µg/L•h/mg
FdUrd Cmax [1, 8]: 0.015 (1.2) mg/L
FdUrd Cmax/Dose [1, 8]: 0.16 (1.2) µg/L / mg
FdUrd t½ [1, 8]: 1.1 (1.3) h
FdUrd/FdCyd metabolic ratio, AUC0-inf [1, 8]: 0.041 (1.7)
FdUrd/FdCyd metabolic ratio, Cmax [1, 8]: 0.028 (1.7)
FdUrd AUC0-inf [1, 9]: 0.054 (1.97) mg/L•h
FdUrd AUC/Dose [1, 9]: 0.45 (2.0) µg/L•h/mg
FdUrd Cmax [1, 9]: 0.016 (1.6) mg/L
FdUrd Cmax/Dose [1, 9]: 0.14 (1.6) µg/L / mg
FdUrd t½ [1, 9]: 1.7 (1.2) h
FdUrd/FdCyd metabolic ratio, AUC0-inf [1, 9]: 0.034 (1.3)
FdUrd/FdCyd metabolic ratio, Cmax [1, 9]: 0.018 (1.3)
FdUrd AUC0-inf [1, 10]: 0.084 (1.55) mg/L•h
FdUrd AUC/Dose [1, 10]: 0.53 (1.6) µg/L•h/mg
FdUrd Cmax [1, 10]: 0.031 (1.5) mg/L
FdUrd Cmax/Dose [1, 10]: 0.20 (1.5) µg/L / mg
FdUrd t½ [1, 10]: 1.2 (1.7) h
FdUrd/FdCyd metabolic ratio, AUC0-inf [1, 10]: 0.070 (1.8)
FdUrd/FdCyd metabolic ratio, Cmax [1, 10]: 0.054 (1.9)
FdUrd AUC0-inf [1, 11]: 0.047 (1.59) mg/L•h
FdUrd AUC/Dose [1, 11]: 0.79 (1.6) µg/L•h/mg
FdUrd Cmax [1, 11]: 0.023 (1.4) mg/L
FdUrd Cmax/Dose [1, 11]: 0.38 (1.4) µg/L / mg
FdUrd t½ [1, 11]: 1.0 (1.5) h
FdUrd/FdCyd metabolic ratio, AUC0-inf [1, 11]: 0.072 (1.4)
FdUrd/FdCyd metabolic ratio, Cmax [1, 11]: 0.060 (1.8)
FdUrd AUC0-inf [1, 12]: 0.068 (1.68) mg/L•h
FdUrd AUC/Dose [1, 12]: 0.85 (1.7) µg/L•h/mg
FdUrd Cmax [1, 12]: 0.019 (1.6) mg/L
FdUrd Cmax/Dose [1, 12]: 0.24 (1.6) µg/L / mg
FdUrd t½ [1, 12]: 1.7 (1.5) h
FdUrd/FdCyd metabolic ratio, AUC0-inf [1, 12]: 0.056 (1.2)
FdUrd/FdCyd metabolic ratio, Cmax [1, 12]: 0.033 (1.8)
FdUrd Cmax/Dose [1, 13]: 0.22 (1.6) µg/L / mg
FdUrd t½ [1, 13]: 1.3 (1.8) h
FdUrd urinary excretion over 0-24 hours of day 1 ([2]; All FdCyd doses + THU 3000 mg, N=5, geom. mean (geom. SD)): 0.053 (1.3) % dose
FdUrd urinary excretion over 0-24 hours of day 1 ([2]; All FdCyd doses + THU 6000 mg, N=3, geom. mean (geom. SD)): 0.10 (2.6) % dose
FdUrd urinary excretion over 0-24 hours of day 1 ([2]; DL4: FdCyd 120 mg + THU 3000 mg, N=2, geom. mean (geom. SD)): 0.064 (1.0) % dose
FdUrd urinary excretion over 0-24 hours of day 1 ([2]; DL5-9: FdCyd 160 mg + THU 3000 mg, N=3, geom. mean (geom. SD)): 0.047 (1.3) % dose
FdUrd urinary excretion over 0-24 hours of day 1 ([2]; DL10: FdCyd 60 mg + THU 6000 mg, N=2, geom. mean (geom. SD)): 0.14 (2.6) % dose
FdUrd urinary excretion over 0-24 hours of day 1 ([2]; DL11: FdCyd 80 mg + THU 6000 mg, N=1): 0.045 (-) % dose
SMILES: O=c1[nH]c(=O)n([C@H]2C[C@H](O)[C@@H](CO)O2)cc1F [FdUrd]

FU AUC0-inf [1, 14]: 0.019 (1.70) mg/L•h
FU Cmax [1, 14]: 0.0042 (1.2) mg/L
FU AUC0-inf [1, 15]: 0.026 (1.54) mg/L•h
FU Cmax [1, 15]: 0.0055 (1.1) mg/L
FU AUC0-inf [1, 16]: 0.032 (1.12) mg/L•h
FU Cmax [1, 16]: 0.0082 (1.4) mg/L
FU AUC0-inf [1, 17]: 0.052 (1.66) mg/L•h
FU Cmax [1, 17]: 0.015 (1.6) mg/L
FU AUC0-inf [1, 18]: 0.033 (1.30) mg/L•h
FU Cmax [1, 18]: 0.011 (1.3) mg/L
FU AUC0-inf [1, 19]: 0.044 (1.36) mg/L•h
FU Cmax [1, 19]: 0.010 (1.1) mg/L
FU urinary excretion over 0-24 hours of day 1 ([2]; All FdCyd doses + THU 3000 mg, N=27, geom. mean (geom. SD)): 0.37 (2.0) % dose
FU urinary excretion over 0-24 hours of day 1 ([2]; All FdCyd doses + THU 6000 mg, N=9, geom. mean (geom. SD)): 0.27 (2.5) % dose
FU urinary excretion over 0-24 hours of day 1 ([2]; DL1: FdCyd 30 mg + THU 3000 mg, N=1): 0.20 (-) % dose
FU urinary excretion over 0-24 hours of day 1 ([2]; DL2: FdCyd 60 mg + THU 3000 mg, N=1): 0.51 (-) % dose
FU urinary excretion over 0-24 hours of day 1 ([2]; DL4: FdCyd 120 mg + THU 3000 mg, N=1): 0.34 (-) % dose
FU urinary excretion over 0-24 hours of day 1 ([2]; DL5-9: FdCyd 160 mg + THU 3000 mg, N=24, geom. mean (geom. SD)): 0.38 (2.1) % dose
FU urinary excretion over 0-24 hours of day 1 ([2]; DL10: FdCyd 60 mg + THU 6000 mg, N=6, geom. mean (geom. SD)): 0.32 (2.5) % dose
FU urinary excretion over 0-24 hours of day 1 ([2]; DL11: FdCyd 80 mg + THU 6000 mg, N=3, geom. mean (geom. SD)): 0.21 (3.0) % dose
SMILES: O=c1[nH]cc(F)c(=O)[nH]1 [FU]
